Several values for one entry are separate records, joined by “and”; a condition that tells them apart may be missing. Identical values can stand only once.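 Values below derive from 48-hour exposures of cells grown in 96-well plates, with endpoints linearly interpolated between the two concentrations bracketing the appropriate inhibition level. At the GI50, growth is halved. Definition used: TGI = concentration required for complete inhibition of growth.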 Activity calls are given as the source filed them. Rule as the data show it: active = GI50 below about 0.43 µM; inactive = the rest.

In this assay the test system is MDA-MB-468 breast. The assay can be described thus: inhibition of tumour cell growth, NCI panel, 48 h.

On to `COc1ccc(-c2nc3sc(-c4cc(OC)c(OC)c(OC)c4)nn3c2/C=C2/C(=O)Nc3ccc(F)cc32)cc1`, for which the GI50 was 2.53 µM and the TGI came out at 7.88 µM.
Turning to `N#CC1=C(N)Oc2c(sc3c(Br)cccc23)C1c1ccc([N+](=O)[O-])cc1` (stereo not drawn), the GI50 was 0.318 µM and the TGI was found to be 7.27 µM.
For `CCN(Cc1ccc(OC)cc1)c1ccc(CO)c(Cl)c1`, the GI50 was 0.0167 µM and the TGI worked out at 0.0413 µM.
Take `O=C1NC(=O)C(c2c[nH]c3ccccc23)=C1c1c[nH]c2ccccc12`: the GI50 was 8.28 µM and the TGI was over 25 µM.
On to `COc1ccc(C2=NN(C(N)=S)C(c3ccc4c(c3)OCO4)C2)cc1` (stereo not drawn), for which the GI50 is 2.68 µM and the TGI amounted to 11 µM.
For `ClC1=C(Cl)C(Cl)(C2(Cl)C(Cl)=C(Cl)C(Cl)=C2Cl)C(Cl)=C1Cl`, the GI50 is 0.334 µM and the TGI turned out to be 1.42 µM.
On to `CC1(C)N=C(N)N=C(N)N1c1ccc(OCCCNC(=O)Nc2ccc(S(=O)(=O)F)cc2)c(Cl)c1`, for which the GI50 is 0.818 µM and the TGI is 29.1 µM.
For the compound `CNC(=O)Oc1cc(C(C)C)ccc1Sc1ccc(C(C)C)cc1OC(=O)NC`, the GI50 was 2.34 µM and the TGI is 9.89 µM.
In the case of `COc1ccc2c(c1)[C@@H](NC(C)=O)CCc1cc(OC)c(OC)c(OC)c1-2`, the GI50 was 0.0698 µM and the TGI is over 100 µM.
As for `CC(C)=CC[C@@H]1CC2(CC=C(C)C)C(=O)C(OC3(C(=O)c4ccccc4)C(=O)C4(CC=C(C)C)C[C@@H](CC=C(C)C)C(C)(C)C(CC=C(C)C)(C4=O)C3=O)(C(=O)c3ccccc3)C(=O)C(CC=C(C)C)(C2=O)C1(C)C` (stereo partly drawn), the GI50 is 1.23 µM and the TGI came to 3.28 µM.
The matching figures for `CC(Nc1ncnc2ccc(-c3cnc(N)nc3)cc12)c1ccccc1` (stereo not drawn): 1.17 µM and 4.03 µM.
`CCC(=C(c1ccc(OCCN2CCCCC2)cc1)c1ccc(OCCN2CCCCC2)cc1)c1ccc(Cl)cc1`: the GI50 is 3.33 µM and the TGI was over 16.7 µM.
Take `C[C@@H]1CN2[C@H]3[C@@H]1CC[C@]31CCC(=O)O[C@]1(C)[C@H]1CC[C@H]3CCC=C3[C@@H]12`: the GI50 was over 30 µM and the TGI was over 30 µM.
For the compound `Cc1[nH]nc2ccc(-c3nc4cnc(N5CCN(C)CC5)cn4c3Nc3ccc(F)cc3Br)cc12`, the GI50 is 1.57 µM and the TGI turned out to be 3.31 µM.
With `Cn1cc(C2=C(c3ccsc3)C(=O)NC2=O)c2ccccc21`, the GI50 was over 22.3 µM and the TGI is over 25 µM.
As for `COc1cc(/C=C/C(=O)c2cccc(-n3cc(-c4ccccc4)[nH]c3=O)c2)cc(OC)c1OC`, the GI50 is 1.8 µM and the TGI stood at 3.54 µM.
For the compound `COC(=O)c1c2c(c(C)[n+]([O-])c1C)C(=O)C(NCc1ccc(OC)cc1)=CC2=O`, the GI50 is 1.27 µM and the TGI came out at 3.06 µM.
In the case of `CN1CCN(Cc2ccc(NC(=O)c3cncc(C#Cc4cnc(N)c5ncccc45)c3)cc2C(F)(F)F)CC1`, the GI50 was 0.368 µM and the TGI is 1.68 µM.
As for `CC(=O)/C(=C\c1ccc(Cl)cc1)c1ccccc1`, the GI50 was 0.0361 µM and the TGI is over 100 µM.
For `CN1C(=O)C(c2c[nH]c3ccccc23)=C(c2c[nH]c3ccccc23)C1=O`, the GI50 was 5.12 µM and the TGI amounted to 19 µM.
In the case of `CC(C)=CCC/C(C)=C/CC/C(C)=C/CSC[C@H](NC(=O)CCCCCN1CCN(C)CC1)C(=O)NC1CCCCCC1`, the GI50 was 2.06 µM and the TGI amounted to 4.89 µM.
`O=C1C=C(Nc2ccccc2)c2ccccc2C1=O`: the GI50 is 2.04 µM and the TGI worked out at 5.94 µM.
Taken in the same sequence, the figures for `CCN1CCN(CCC(=O)Nc2cccc(-n3cc(-c4ccncc4)c(-c4ccc(Cl)c(OC)c4)n3)c2)CC1` were 0.325 µM and 1.41 µM.
As to `C/C(=C\C(=O)O[C@H]1[C@@H]2[C@H](C)CC[C@H]2[C@]2(C)O[C@@]1(C1CCCCC1)C[C@H]2OC(=O)CO)c1ccccc1`, the GI50 was 6.7 µM and the TGI turned out to be 13.4 µM.
With `COc1cccc2c1nc(C(F)F)n2-c1nc(-c2ccc(NS(=O)(=O)CCN(C)C)cc2)nc(N2CCOCC2)n1`, the GI50 was 0.0711 µM and the TGI stood at 0.492 µM.
For `O=C(N/N=C/c1ccc(Cl)cc1)c1ccc(NC(=O)c2ccccn2)cc1`, the GI50 is 23.2 µM and the TGI worked out at 95.2 µM.
Taken in the same sequence, the figures for `COC(=O)c1cc2ccc(O)c(O)c2cn1` were 14.1 µM and 27.2 µM.
As for `CC(C)(C)CC(C)(C)c1ccc(OCCO)cc1`, the result was inactive.
Regarding `O=c1[nH]c2ccccc2n1C1CCNCC1`, the GI50 is over 100 µM and the TGI is over 100 µM.
Turning to `N#CCCNc1nonc1-c1nc2ccccc2n1CC(=O)c1ccc(N)cc1`, the GI50 is 0.0168 µM and the TGI is 0.0683 µM.
Taken in the same sequence, the figures for `CC(C)=CCc1cc2c(cc1O)C1=C(C(=O)C3=C(NCCS3(=O)=O)C1=O)C(C=C(C)C)O2` (stereo not drawn) were 3.27 µM and 12.8 µM.
As to `O=S(=O)(NCCCNc1cc(-c2cn(-c3ccccc3)nc2-c2cccc(O)c2)ccn1)c1ccc(C(F)(F)F)cc1`, the GI50 is 1.8 µM and the TGI worked out at 5.55 µM.
Regarding `C=CCc1cccc(C=O)c1O`, the GI50 is over 100 µM and the TGI is over 100 µM.
For `Nc1c(C(=O)Nc2cccc(Cl)c2)sc2nc3c(cc12)C(=O)CCC3`, the GI50 is 0.0879 µM and the TGI is 1.3 µM.
`O=C(CCCc1ccc(N(CCCl)CCCl)cc1)NCc1ccccc1`: the GI50 is 2.75 µM and the TGI is 10.3 µM.
As for `COc1cc2cc(NCc3cccc(Cl)c3)nc(C)c2cc1OC`, the GI50 was 4.06 µM and the TGI was 24.3 µM.
As to `Nc1ccc(/C=C/c2ccc3ncccc3c2)cc1`, the GI50 was over 100 µM and the TGI is over 100 µM.
Take `COC(=O)[C@@H](C)C[C@H](Cc1ccccc1)NC(=O)c1nc([C@@H](C[C@H](C(C)C)N(C)C(=O)[C@@H](NC(=O)[C@H]2C[C@H](O)CCN2C)C(C)C)OC(C)=O)sc1C(C)C`: the GI50 is under 0.00111 µM.
As to `COC(=O)N[C@H]1CCc2cc(OC)c(OC)c(OC)c2-c2ccc(SC)c(=O)cc21`, the GI50 was under 0.01 µM and the TGI was over 100 µM.
`CCOc1ccc(N(C)c2ccc(/C=C/C3=[N+](C)c4ccccc4C3(C)C)cc2)cc1`: the GI50 was 0.161 µM and the TGI came to 1.03 µM.
As for `Cc1ccc(NC(=O)c2ccc(CN3CCN(C)CC3)cc2)cc1Nc1nc(-c2cccnc2)cs1`, the GI50 is 2.98 µM and 2.62 µM; the TGI is 15.3 µM and > 10 µM.
In the case of `Cn1cc(-c2ccc3nc(-c4ccc(CC(=O)Nc5cc(C(C)(C)C)no5)cc4)cnc3c2)cn1`, the GI50 was 0.0702 µM and the TGI was over 3 µM.
The matching figures for `O=[N+]([O-])c1ccc(C2=NCCO2)cc1`: over 100 µM and over 100 µM.
As to `O=C(NCc1cn(Cc2cccc(Oc3ccccc3)c2)nn1)c1cccnc1Nc1ccc(F)cc1`, the GI50 was 5.17 µM and the TGI is over 100 µM.
In the case of `CC1=C(CCCOC(=O)[C@H](N)CC(C)C)C2=C(C)C3(CC3)[C@@](C)(O)C(=O)C2=C1`, the GI50 was 1.37 µM and the TGI was 4.6 µM.
In the case of `O=C(/C=C\c1ccc(O)c(O)c1)c1ccccc1O`, the GI50 was 2.98 µM and the TGI stood at 16.7 µM.
`CCCCn1c(=O)[nH]c(N)c([C@@H]2c3c([nH]c(=O)n(CCCC)c3=O)Oc3ccc4ccccc4c32)c1=O`: the GI50 was 13.4 µM and the TGI was 33.4 µM.
With `CCOC(=O)c1noc2c1CCc1c-2cn(Cc2ccc(OC)cc2)c1-c1cc(OC)c(OC)c(OC)c1`, the GI50 is 5.62 µM and the TGI was over 100 µM.
As for `Sc1cccc2cccnc12`, the GI50 is 2.71 µM and the TGI came to 15.6 µM.
The matching figures for `Cn1ncnc1[C@@H]1c2n[nH]c(=O)c3cc(F)cc(c23)N[C@H]1c1ccc(F)cc1`: over 100 µM and over 100 µM.

The values are drawn from PubChem BioAssay (NCI).
